{"source": "patent US7109193B2", "about": "“Tricyclic diazepines tocolytic oxytocin receptor antagonists” (Wyeth, priority 2001, dated 2006)", "biological_target": "T1, human vasopressin V2 receptor subtype (Homo sapiens, UniProt P30518)", "T1 construct": "host or cells: CHO cells (pZeoSV vector)", "T1 sequence (P30518 whole entry)": "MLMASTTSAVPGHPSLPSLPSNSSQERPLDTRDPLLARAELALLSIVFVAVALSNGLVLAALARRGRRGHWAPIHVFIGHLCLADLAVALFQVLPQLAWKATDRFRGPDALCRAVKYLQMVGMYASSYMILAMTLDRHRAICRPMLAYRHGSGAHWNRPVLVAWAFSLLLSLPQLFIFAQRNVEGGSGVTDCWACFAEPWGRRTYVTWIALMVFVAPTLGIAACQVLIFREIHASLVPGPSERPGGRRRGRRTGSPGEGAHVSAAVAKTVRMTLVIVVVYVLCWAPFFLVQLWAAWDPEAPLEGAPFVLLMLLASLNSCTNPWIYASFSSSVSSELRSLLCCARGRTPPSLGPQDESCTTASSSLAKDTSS", "experiment": "Vasopressin binding in Chinese Hamster Ovary cell membranes expressing human vasopressin V2 subtype receptors", "settings": "100 nM, CHO cell membranes, [3H]arginine vasopressin, values without parentheses", "procedure,_shortened": "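Radioligand displacement on membranes from CHO cells stably expressing human V2 receptor, 25 to 50 μg protein/well, in 50 mM Tris-HCl pH 7.4 with MgCl2, BSA and protease inhibitors. [^3H]arginine vasopressin (8 nM working solution) incubated 60 min at room temperature; bound label measured by filtration and scintillation counting.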", "data": [{"smiles": "COc1ccccc1-c1ccc(C(=O)N2Cc3ccc(C(=O)N4CCN(C)CC4)n3Cc3ccccc32)cc1OC", "note": "[Example 56, {10-[(2,2′-Dimethoxy[1,1′-biphenyl]-4-yl)carbonyl]-10,11-dihydro-5H-pyrrolo[2,1-c][1,4]benzodiazepin-3-yl}(4-methyl-1-piperazinyl)methanone]", "values": [{"measurement": "inhibition at 0.1 µM", "result": 27, "unit": "%"}]}, {"smiles": "CCOc1ccccc1-c1cc(OC)c(C(=O)N2Cc3cccn3Cc3ccccc32)cc1Cl", "note": "[Example 17, 10-{[6-Chloro-3-methoxy-2′-ethoxy[1,1′-biphenyl]-4-yl]carbonyl}-10,11-dihydro-5H-pyrrolo[2,1-c][1,4]benzodiazepine]", "values": [{"measurement": "inhibition at 0.1 µM", "result": 32, "unit": "%"}]}, {"smiles": "COc1ccccc1-c1ccc(C(=O)N2Cc3ccc(C(=O)n4ccnc4)n3Cc3ccccc32)cc1C", "note": "[Example 292, 1H-Imidazol-1-yl-{10-[(2′-methoxy-2-methyl[1,1′-biphenyl]-4-yl)carbonyl]-10,11-dihydro-5H-pyrrolo[2,1-c][1,4]benzodiazepin-3-yl}methanone]", "values": [{"measurement": "inhibition at 0.1 µM", "result": -7, "unit": "%"}]}, {"smiles": "COc1cc(C(=O)N2Cc3ccc(C(=O)N4CCCN(C)CC4)n3Cc3ccccc32)ccc1-c1ccccc1C", "note": "[Example 66, {10-[(2-Methoxy-2′-methyl[1,1′-biphenyl]-4-yl)carbonyl]-10,11-dihydro-5H-pyrrolo[2,1-c][1,4]benzodiazepin-3-yl}(4-methyl-1,4-diazepan-1-yl)methanone]", "values": [{"measurement": "inhibition at 0.1 µM", "result": 20, "unit": "%"}]}, {"smiles": "COc1cc(C(=O)N2Cc3ccc(C(=O)N4CCCN(C)CC4)n3Cc3ccccc32)ccc1-n1c(C)ccc1C", "note": "[Example 307, {10-[4-(2,5-Dimethyl-1H-pyrrol-1-yl)-3-methoxybenzoyl]-10,11-dihydro-5H-pyrrolo[2,1-c][1,4]benzodiazepin-3-yl}(4-methyl-1,4-diazepan-1-yl)methanone]", "values": [{"measurement": "inhibition at 0.1 µM", "result": 8, "unit": "%"}]}, {"smiles": "COc1cc(C(=O)N2Cc3ccc(C(=O)n4ccnc4)n3Cc3ccccc32)ccc1-c1ccccc1C", "note": "[Example 290, 1H-Imidazol-1-yl-{10-[(2-methoxy-2′-methyl[1,1′-biphenyl]-4-yl)carbonyl]-10,11-dihydro-5H-pyrrolo[2,1-c][1,4]benzodiazepin-3-yl}methanone]", "values": [{"measurement": "inhibition at 0.1 µM", "result": -6, "unit": "%"}]}, {"smiles": "COc1cccc(-c2ccc(C(=O)N3Cc4ccc(C(=O)N5CCN(C)CC5)n4Cc4ccccc43)cc2OC)c1", "note": "[Example 57, {10-[(2,3′-Dimethoxy[1,1′-biphenyl]-4-yl)carbonyl]-10,11-dihydro-5H-pyrrolo[2,1-c][1,4]benzodiazepin-3-yl}(4-methyl-1-piperazinyl)methanone]", "values": [{"measurement": "inhibition at 0.1 µM", "result": 11, "unit": "%"}]}, {"smiles": "COc1cc(C(=O)N2Cc3ccc(C(=O)N4CCC(N5CCCCC5)CC4)n3Cc3ccccc32)ccc1-n1c(C)ccc1C", "note": "[Example 311, {10-[4-(2,5-Dimethyl-1H-pyrrol-1-yl)-3-methoxy-benzoyl]-10,11-dihydro-5H-pyrrolo[2,1-c][1,4]benzodiazepin-3-yl}[4-(1-piperidinyl)-1-piperidinyl]-methanone]", "values": [{"measurement": "inhibition at 0.1 µM", "result": 7, "unit": "%"}]}, {"smiles": "COc1cc(C(=O)N2Cc3ccc(C(=O)n4ccnc4)n3Cc3ccccc32)ccc1-c1cccc2ccccc12", "note": "[Example 291, 1H-Imidazol-1-yl-{10-[3-methoxy-4-(1-naphthyl)benzoyl]-10,11-dihydro-5H-pyrrolo[2,1-c][1,4]benzodiazepin-3-yl}methanone]", "values": [{"measurement": "inhibition at 0.1 µM", "result": 5, "unit": "%"}]}, {"smiles": "Cc1ccccc1-c1ccc(C(=O)N2Cc3ccc(C(=O)N4CCN(C)CC4)n3Cc3ccccc32)cc1", "note": "[Example 52, {10-[(2′-Methyl[1,1′-biphenyl]-4-yl)carbonyl]-10,11-dihydro-5H-pyrrolo[2,1-c][1,4]benzodiazepin-3-yl}(4-methyl-1-piperazinyl)methanone]", "values": [{"measurement": "inhibition at 0.1 µM", "result": 17, "unit": "%"}]}, {"smiles": "COc1cccc(-c2cc(OC)c(C(=O)N3Cc4ccc(C(=O)N5CCN(C)CC5)n4Cc4ccccc43)cc2Cl)c1", "note": "[Example 54, {10-[(6-Chloro-3,3′-dimethoxy[1,1′-biphenyl]-4-yl)carbonyl]-10,11-dihydro-5H-pyrrolo[2,1-c][1,4]benzodiazepin-3-yl}(4-methyl-1-piperazinyl)methanone]", "values": [{"measurement": "inhibition at 0.1 µM", "result": 7, "unit": "%"}]}, {"smiles": "COc1cccc(-c2ccc(C(=O)N3Cc4ccc(C(=O)n5ccnc5)n4Cc4ccccc43)cc2C)c1", "note": "[Example 289, 1H-Imidazol-1-yl-{10-[(3′-methoxy-2-methyl[1,1′-biphenyl]-4-yl)carbonyl]-10,11-dihydro-5H-pyrrolo[2,1-c][1,4]benzodiazepin-3-yl}methanone]", "values": [{"measurement": "inhibition at 0.1 µM", "result": 7, "unit": "%"}]}, {"smiles": "COc1cc(C(=O)N2Cc3ccc(C(=O)N4CCN(C)CC4)n3Cc3ccccc32)ccc1-n1c(C)ccc1C", "note": "[Example 306, {10-[4-(2,5-Dimethyl-1H-pyrrol-1-yl)-3-methoxybenzoyl]-10,11-dihydro-5H-pyrrolo[2,1-c][1,4]benzodiazepin-3-yl}(4-methyl-1-piperazinyl)methanone]", "values": [{"measurement": "inhibition at 0.1 µM", "result": 0, "unit": "%"}]}, {"smiles": "COc1cc(C(=O)N2Cc3ccc(C(=O)NCCC4CCCN4C)n3Cc3ccccc32)ccc1-n1c(C)ccc1C", "note": "(centres unmarked) [Example 315, 10-[4-(2,5-Dimethyl-1H-pyrrol-1-yl)-3-methoxybenzoyl]-N-[2-(1-methyl-2-pyrrolidinyl)ethyl]-10,11-dihydro-5H-pyrrolo[2,1-c][1,4]benzodiazepine-3-carboxamide]", "values": [{"measurement": "inhibition at 0.1 µM", "result": -4, "unit": "%"}]}, {"smiles": "Cc1ccccc1-c1ccc(C(=O)N2Cc3ccc(C(=O)NCCCN(C)C)n3Cc3ccccc32)cc1", "note": "[Example 76, N-[3-(Dimethylamino)propyl]-10-[(2′-methyl[1,1′-biphenyl]-4-yl)carbonyl]-10,11-dihydro-5H-pyrrolo[2,1-c][1,4]benzodiazepine-3-carboxamide]", "values": [{"measurement": "inhibition at 0.1 µM", "result": 17, "unit": "%"}]}, {"smiles": "Cc1cc(C(=O)N2Cc3cccn3Cc3ccccc32)ccc1-c1ccncc1", "note": "[Example 31, [3-Methyl-4-(4-pyridinyl)phenyl]-[10,11-dihydro-5H-pyrrolo[2,1-c][1,4]benzodiazepin-10-yl]methanone]", "values": [{"measurement": "inhibition at 0.1 µM", "result": 31, "unit": "%"}]}, {"smiles": "COc1ccccc1-c1ccc(C(=O)N2Cc3ccc(C(=O)NCCCN(C)C)n3Cc3ccccc32)cc1", "note": "[Example 75, N-[3-(Dimethylamino)propyl]-10-[(2′-methoxy[1,1′-biphenyl]-4-yl)carbonyl]-10,11-dihydro-5H-pyrrolo[2,1-c][1,4]benzodiazepine-3-carboxamide]", "values": [{"measurement": "inhibition at 0.1 µM", "result": 14, "unit": "%"}]}, {"smiles": "COc1ccccc1-c1ccc(C(=O)N2Cc3ccc(C(=O)N[C@@H]4CN5CCC4CC5)n3Cc3ccccc32)cc1OC", "note": "[Example 300, N-[(3S)-1-Azabicyclo[2.2.2]oct-3-yl]-10-[(2,2′-dimethoxy[1,1′-biphenyl]-4-yl)carbonyl]-10,11-dihydro-5H-pyrrolo[2,1-c][1,4]benzodiazepine-3-carboxamide]", "values": [{"measurement": "inhibition at 0.1 µM", "result": 19, "unit": "%"}]}, {"smiles": "COc1cc(C(=O)N2Cc3ccc(C(=O)NCCCN(C)C)n3Cc3ccccc32)ccc1-n1c(C)ccc1C", "note": "[Example 308, N-[3-(Dimethylamino)propyl]-10-[4-(2,5-dimethyl-1H-pyrrol-1-yl)-3-methoxybenzoyl]-10,11-dihydro-5H-pyrrolo[2,1-c][1,4]benzodiazepine-3-carboxamide]", "values": [{"measurement": "inhibition at 0.1 µM", "result": 1, "unit": "%"}]}, {"smiles": "Cc1ccccc1-c1ccc(C(=O)N2Cc3ccc(C(=O)N4CCN(CCCN(C)C)CC4)n3Cc3ccccc32)cc1C", "note": "[Example 247, {4-[3-(Dimethylamino)propyl]-1-piperazinyl}{10-[(2,2′-dimethyl[1,1′-biphenyl]-4-yl)carbonyl]-10,11-dihydro-5H-pyrrolo[2,1-c][1,4]benzodiazepin-3-yl}methanone]", "values": [{"measurement": "inhibition at 0.1 µM", "result": 21, "unit": "%"}]}]}
